The values below are quoted from earlier work in US9937166B2 (INFLAMMATORY RESPONSE RESEARCH, INC., priority 2013, dated 2018).

Molecules are shown by their SMILES. Where two headings read alike, the source gives them in different places.

In one data set the test system is ALI/ARDS. The conditions noted are these: in vivo.
The conditions of data set [1]: for Time to reach steady state level: administered orally.
For a further data set, the system named is influenza. The note with it: in vivo.
In data set [2] the test system is IL-4, IL-6, IL-8, ICAM-1, TLR3, NF-kappa B.
Assay in data set [3]: not given
This is another data set of the same source.

Data set [4] has as its system histamine induced wheal and flare.
The conditions of data set [5]: in vivo.
Another data set concerns the target H1 receptor (Homo sapiens, UniProt P35367). The conditions noted are these: acidic pH, inflamed tissue.

Chain of H1 receptor (P35367 whole entry): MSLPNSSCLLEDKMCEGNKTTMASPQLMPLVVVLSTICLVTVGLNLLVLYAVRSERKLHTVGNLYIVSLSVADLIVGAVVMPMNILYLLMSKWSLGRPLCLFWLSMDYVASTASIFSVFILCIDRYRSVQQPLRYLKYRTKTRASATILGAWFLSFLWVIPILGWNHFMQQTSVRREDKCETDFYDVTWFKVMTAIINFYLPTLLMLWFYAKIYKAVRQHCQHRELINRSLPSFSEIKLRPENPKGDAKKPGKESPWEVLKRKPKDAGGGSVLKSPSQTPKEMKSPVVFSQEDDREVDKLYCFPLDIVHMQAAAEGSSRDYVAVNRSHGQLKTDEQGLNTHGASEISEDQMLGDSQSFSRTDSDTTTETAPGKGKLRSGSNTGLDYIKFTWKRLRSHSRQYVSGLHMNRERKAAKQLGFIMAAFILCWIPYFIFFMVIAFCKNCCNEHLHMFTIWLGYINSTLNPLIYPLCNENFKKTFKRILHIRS

As to `CC(=O)N1CCN(c2ccc(OCC3COC(Cn4ccnc4)(c4ccc(Cl)cc4Cl)O3)cc2)CC1` (centres unmarked) [ketoconazole], the “Outcome in large trials for ALI/ARDS” value in the data set on ALI/ARDS is “failed”.
Take `CC(C)(O)c1ccccc1CC[C@@H](SCC1(CC(=O)O)CC1)c1cccc(/C=C/c2ccc3ccc(Cl)cc3n2)c1` [montelukast]: the “Doses without clinically important adverse experiences” value (adult patients for 22 weeks) is on record as “up to 200 mg/day”. The “Doses without clinically important adverse experiences” value (short-term studies, approximately one week) is reported as “up to 900 mg/day”. Besides, in [1] (IV 7 mg vs approved 10 mg oral tablet), the “Plasma concentration area under the curve profile, IV vs oral tablet” value is reported as “comparable”. In addition, the “Time to reach steady state level” value in data set [1] is “two”. In addition, in [1] (listed as Montelukast), the “Time to reach steady state level” value is “less than two”. For the same molecule, in [1] (in vivo), the Absorption entry is reported as “rapidly absorbed”, the “Linear pharmacokinetics to dose” value was no more than 50 mg and the “Time to peak plasma concentration” value was 3 to 4 h. In addition, the “Effect of a standard meal on oral bioavailability and C.” value in data set [1] (standard meal) is reported as “not affected”.
`CCCCC[C@H](O)/C=C/[C@H]1[C@H](O)CC(=O)[C@@H]1CCCCCCC(=O)O` [alprostadil]: in the data set on ALI/ARDS, the “Outcome in large trials for ALI/ARDS” value is reported as “failed”.
As for `C[C@@H](O)CCCCn1c(=O)c2c(ncn2C)n(C)c1=O` [lisofylline], the “Outcome in large trials for ALI/ARDS” value with ALI/ARDS is “failed”.
Consider `O=C1N[C@H](C(=O)O)CS1` [procysteine], for which the “Outcome in large trials for ALI/ARDS” value in the data set on ALI/ARDS is on record as “failed”.
In the case of `CCOC(=O)C1=C[C@@H](OC(CC)CC)[C@H](NC(C)=O)[C@@H](N)C1` [oseltamivir], in the data set on influenza, the “Influenza related lower respiratory tract complications” value was “did not appear to reduce”.
Consider `O=C(O)COCCN1CCN([C@H](c2ccccc2)c2ccc(Cl)cc2)CC1` [levocetirizine], for which, in data set [2], the “Inflammatory mediators IL-4, IL-6, and IL-8” value is “decrease”. Moreover, in data set [2] (in vivo (so in the source)), the “ICAM-1, IL-6, IL-8, TLR3 expression and NF-kappa B activation” value is reported as “decrease”. Besides, the Eosinophil migration result in the data set on eosinophil migration is on record as “decrease”. Moreover, the “Principal side effect experienced at higher doses” value in [3] (higher doses) is given as “Sedation”. In addition, the “Doses that can be safely administered” value in [3] (humans) is on record as “up to 30 mg/day”. For the same molecule, the “Potency among the five modern generation antihistamines” value in data set [4] (histamine induced wheal and flare data) is “most potent”. In addition, in data set [4] (levocetirizine 5 mg per day vs fexofenadine 180 mg per day), the “Effectiveness compared with fexofenadine” value was “more effective”. Further, the “Steady-state level (time to)” value in data set [5] was 40 h. The “Enhanced receptor affinity over first generation mepyramine / first generation molecules” value on H1 receptor is recorded as “up to 5 ×”; at H1 receptor (listed as Levocetirizine), 5 ×. Moreover, in the data set with airway epithelial cells, the “Rhinovirus-induced ICAM-1 and cytokine expression and viral replication” value is given as “inhibits”.
As to `CC(=O)N[C@@H](CS)C(=O)O` [N-acetylcysteine], the “Outcome in large trials for ALI/ARDS” value in the data set with ALI/ARDS is on record as “failed”.
